Measured values reported in PubChem BioAssay AID228 (DTP/NCI, 2004).
Where “and” joins values, the source holds several entries; their conditions need not be identical. Identical values can stand only once. Inconclusive results are not listed.

Tested on: BDF1 mice, Friend leukemia sc, tumor weight T/C
Test: NCI In Vivo Anticancer Drug Screen. Data for tumor model Friend Virus Leukemia (Solid) (subcutaneous) in B6D2F1 (BDF1) mice
Settings: endpoint: mean tumor weight, higher = larger tumour
Description: The antitumor activity of compounds was measured in mice bearing transplantable tumors. Survival or tumor size were measured and the results are expressed as the measurement made in the treated group (T) divided by the measurement made in the vehicle treated control group (C). The tumor model used in this assay is Friend Virus Leukemia (Solid) (subcutaneous) in B6D2F1 (BDF1) mice

[1] = dose: 0.1 mg/kg/injection, schedule: Q01DX011 (ip), vehicle: carboxymethylcellulose (CMC)
[2] = dose: 1.0 mg/kg/injection, schedule: Q01DX011 (ip), vehicle: carboxymethylcellulose (CMC)
[3] = dose: 2.0 mg/kg/injection, schedule: Q01DX011 (ip), vehicle: carboxymethylcellulose (CMC)
[4] = dose: 4.0 mg/kg/injection, schedule: Q01DX011 (ip), vehicle: carboxymethylcellulose (CMC)
[5] = dose: 25.0 mg/kg/injection, schedule: Q01DX011 (ip), vehicle: carboxymethylcellulose (CMC)
[6] = dose: 50.0 mg/kg/injection, schedule: Q01DX011 (ip), vehicle: carboxymethylcellulose (CMC)
[7] = dose: 0.25 mg/kg/injection, schedule: Q01DX011 (ip), vehicle: carboxymethylcellulose (CMC)
[8] = dose: 15.0 mg/kg/injection, schedule: Q01DX011 (ip), vehicle: carboxymethylcellulose (CMC)
[9] = dose: 0.5 mg/kg/injection, schedule: Q01DX011 (ip), vehicle: carboxymethylcellulose (CMC)
[10] = dose: 8.0 mg/kg/injection, schedule: Q01DX011 (ip), vehicle: carboxymethylcellulose (CMC)

In the case of N#Cc1cn(C2OC(CO)C(O)C2O)c2ncnc(N)c12 (stereo unspecified), the T/C (dose: 0.05 mg/kg/injection, schedule: Q01DX011 (ip), vehicle: carboxymethylcellulose (CMC)) is reported as 68 % of control, the T/C [1] is reported as 72 % of control and the T/C (dose: 0.15 mg/kg/injection, schedule: Q01DX011 (ip), vehicle: carboxymethylcellulose (CMC)) is reported as 71 % of control.

In the case of NC(=O)N(CCCl)N=O, the T/C [2] is reported as 104 % of control, the T/C [3] is reported as 101 % of control and the T/C [4] is reported as 78 % of control.

In the case of C[C@]12CC[C@@H]3c4ccc(OC(=O)c5ccccc5)cc4CC[C@H]3[C@@H]1CC[C@@H]2O, the T/C (dose: 77.25 mg/kg/injection, schedule: Q01DX011 (sc), vehicle: steriod suspending solution) is reported as 102 % of control and the T/C (dose: 154.5 mg/kg/injection, schedule: Q01DX011 (sc), vehicle: steriod suspending solution) is reported as 112 % of control.

In the case of CCn1cnc2c(=S)nc[nH]c21, the T/C [5] is reported as 105 % of control, the T/C [6] is reported as 66 % of control and the T/C (dose: 100.0 mg/kg/injection, schedule: Q01DX011 (ip), vehicle: carboxymethylcellulose (CMC)) is reported as 12 % of control.

[N-]=[N+]=[N-] was tested, and the T/C (dose: 1.06 mg/kg/injection, schedule: Q01DX011 (ip), vehicle: carboxymethylcellulose (CMC)) was 89 % of control, the T/C (dose: 2.12 mg/kg/injection, schedule: Q01DX011 (ip), vehicle: carboxymethylcellulose (CMC)) was 108 % of control and the T/C (dose: 4.25 mg/kg/injection, schedule: Q01DX011 (ip), vehicle: carboxymethylcellulose (CMC)) was 114 % of control. The T/C (dose: 8.5 mg/kg/injection, schedule: Q01DX011 (ip), vehicle: carboxymethylcellulose (CMC)) was 117 % of control.

With Nc1nc(=S)c2[nH]cnc2[nH]1 the T/C [7] was 53 % of control and 47 % of control, the T/C (dose: 0.4 mg/kg/injection, schedule: Q01DX011 (ip), vehicle: carboxymethylcellulose (CMC)) was 33 % of control and 36 % of control and the T/C (dose: 0.66 mg/kg/injection, schedule: Q01DX011 (ip), vehicle: carboxymethylcellulose (CMC)) was 23 % of control and 26 % of control.

c1ccc(CSc2ncnc3nc[nH]c23)cc1 was tested, and the T/C (dose: 5.0 mg/kg/injection, schedule: Q01DX011 (ip), vehicle: carboxymethylcellulose (CMC)) was 118 % of control, the T/C (dose: 10.0 mg/kg/injection, schedule: Q01DX011 (ip), vehicle: carboxymethylcellulose (CMC)) was 90 % of control and the T/C [8] was 109 % of control. The T/C [5] was 91 % of control.

CCCCSc1nc(N)nc2c1ncn2CC(C)CC (stereo unspecified) was tested, and the T/C (dose: 125.0 mg/kg/injection, schedule: Q01DX011 (ip), vehicle: carboxymethylcellulose (CMC)) was 68 % of control, the T/C (dose: 250.0 mg/kg/injection, schedule: Q01DX011 (ip), vehicle: carboxymethylcellulose (CMC)) was 75 % of control and the T/C (dose: 500.0 mg/kg/injection, schedule: Q01DX011 (ip), vehicle: carboxymethylcellulose (CMC)) was 23 % of control.

In the case of CN1CCC23c4c5ccc(O)c4OC2C(O)C=CC3C1C5 (stereo unspecified), the T/C (dose: 62.0 mg/kg/injection, schedule: Q01DX011 (ip), vehicle: saline) is reported as 116 % of control, the T/C (dose: 125.0 mg/kg/injection, schedule: Q01DX011 (ip), vehicle: saline) is reported as 172 % of control and the T/C (dose: 250.0 mg/kg/injection, schedule: Q01DX011 (ip), vehicle: saline) is reported as 118 % of control.

With CCc1nc(N)nc(N)c1-c1ccc(Cl)cc1 the T/C (dose: 6.25 mg/kg/injection, schedule: Q01DX011 (ip), vehicle: carboxymethylcellulose (CMC)) was 124 % of control, the T/C (dose: 12.5 mg/kg/injection, schedule: Q01DX011 (ip), vehicle: carboxymethylcellulose (CMC)) was 85 % of control and the T/C [5] was 113 % of control. For the same compound, the T/C [6] was 95 % of control.

With CN(C)c1ccc(/C=C/c2ccnc3ccccc23)cc1 the T/C (dose: 37.5 mg/kg/injection, schedule: Q01DX011 (ip), vehicle: saline) was 73 % of control and the T/C (dose: 50.0 mg/kg/injection, schedule: Q01DX011 (ip), vehicle: saline) was 51 % of control.

For CCC(C)C(NN)C(=O)O (stereo unspecified), the T/C (dose: 2.5 mg/kg/injection, schedule: Q01DX011 (ip), vehicle: other) was 84 % of control, the T/C (dose: 5.0 mg/kg/injection, schedule: Q01DX011 (ip), vehicle: other) was 104 % of control and the T/C (dose: 10.0 mg/kg/injection, schedule: Q01DX011 (ip), vehicle: other) was 81 % of control. The T/C (dose: 20.0 mg/kg/injection, schedule: Q01DX011 (ip), vehicle: other) was 89 % of control, the T/C (dose: 40.0 mg/kg/injection, schedule: Q01DX011 (ip), vehicle: other) was 83 % of control and the T/C (dose: 50.0 mg/kg/injection, schedule: Q01DX011 (ip), vehicle: other) was 21 % of control.

With C[C@]12CC[C@H](OC3OC(CO)C(O)C(O)C3O)C[C@H]1CC[C@@H]1[C@@H]2CC[C@]2(C)[C@@H](C3=CCOC3=O)CC[C@]12O (stereo partly specified) the T/C [1] was 69 % of control.

For CCCCn1cnc2c(=S)nc(N)[nH]c21, the T/C [7] was 87 % of control, the T/C [9] was 53 % of control and the T/C [2] was 32 % of control and 40 % of control. For the same compound, the T/C (dose: 3.0 mg/kg/injection, schedule: Q01DX011 (ip), vehicle: carboxymethylcellulose (CMC)) was 6 % of control and 7 % of control, the T/C (dose: 7.0 mg/kg/injection, schedule: Q01DX011 (ip), vehicle: carboxymethylcellulose (CMC)) was 12 % of control and the T/C [8] was 9 % of control.

For CCCCCCCCCCCCn1c(C)nc2ccccc21, the T/C [2] was 114 % of control, the T/C [3] was 75 % of control and the T/C [4] was 97 % of control. The T/C [10] was 76 % of control.

CS(=O)(=O)OCCCl was tested, and the T/C (dose: 14.0 mg/kg/injection, schedule: Q01DX011 (ip), vehicle: carboxymethylcellulose (CMC)) was 67 % of control, the T/C (dose: 28.0 mg/kg/injection, schedule: Q01DX011 (ip), vehicle: carboxymethylcellulose (CMC)) was 70 % of control and the T/C (dose: 57.0 mg/kg/injection, schedule: Q01DX011 (ip), vehicle: carboxymethylcellulose (CMC)) was 69 % of control. For the same compound, the T/C (dose: 115.0 mg/kg/injection, schedule: Q01DX011 (ip), vehicle: carboxymethylcellulose (CMC)) was 60 % of control.

With CN(C)c1ccc(C(N)=O)cn1 the T/C [2] was 78 % of control and the T/C [3] was 88 % of control and 100 % of control.

CCc1ccccc1N1CCN(C(=O)c2cc(OC)c(OC)c(OC)c2)CC1 was tested, and the T/C [7] was 64 % of control, the T/C [9] was 73 % of control and the T/C [2] was 64 % of control. The T/C [3] was 53 % of control and 35 % of control, the T/C [4] was 67 % of control and the T/C [10] was 40 % of control. For the same compound, the T/C (dose: 16.0 mg/kg/injection, schedule: Q01DX011 (ip), vehicle: carboxymethylcellulose (CMC)) was 42 % of control and the T/C (dose: 31.0 mg/kg/injection, schedule: Q01DX011 (ip), vehicle: other) was 11 % of control.

For C[C@]12CC[C@@H]3c4ccc(O)cc4CC[C@H]3[C@@H]1CC[C@@H]2O, the T/C (dose: 1.0 mg/kg/injection, schedule: Q01DX011 (sc), vehicle: steriod suspending solution) was 74 % of control, the T/C (dose: 5.0 mg/kg/injection, schedule: Q01DX011 (sc), vehicle: steriod suspending solution) was 104 % of control and the T/C (dose: 10.0 mg/kg/injection, schedule: Q01DX011 (sc), vehicle: steriod suspending solution) was 71 % of control. The T/C (dose: 20.0 mg/kg/injection, schedule: Q01DX011 (sc), vehicle: steriod suspending solution) was 73 % of control, the T/C (dose: 40.0 mg/kg/injection, schedule: Q01DX011 (sc), vehicle: steriod suspending solution) was 61 % of control and the T/C (dose: 80.0 mg/kg/injection, schedule: Q01DX011 (sc), vehicle: steriod suspending solution) was 75 % of control. The T/C (dose: 100.0 mg/kg/injection, schedule: Q01DX011 (sc), vehicle: steriod suspending solution) was 103 % of control, the T/C (dose: 150.0 mg/kg/injection, schedule: Q01DX011 (sc), vehicle: steriod suspending solution) was 106 % of control and the T/C (dose: 200.0 mg/kg/injection, schedule: Q01DX011 (sc), vehicle: steriod suspending solution) was 101 % of control. For the same compound, the T/C (dose: 400.0 mg/kg/injection, schedule: Q01DX011 (sc), vehicle: steriod suspending solution) was 110 % of control and the T/C (dose: 500.0 mg/kg/injection, schedule: Q01DX011 (sc), vehicle: steriod suspending solution) was 86 % of control and 107 % of control.
